Laboratory results published in publication PMC12064818, “A general assay platform to study protein pharmacology using ligand-dependent structural dynamics” (Nature Communications, 2025).

Biological target: T1, FLuc-C-HiBiT (Photinus pyralis, UniProt P08659)
T1 construct: firefly luciferase with C-terminal HiBiT tag, E. coli expressed
Test: biochemical
Details: enzyme activity, 10 uM ATP; read-out: IC50 or SDR50 (mM) / FLuc E

T1 sequence (P08659 whole entry, looked up): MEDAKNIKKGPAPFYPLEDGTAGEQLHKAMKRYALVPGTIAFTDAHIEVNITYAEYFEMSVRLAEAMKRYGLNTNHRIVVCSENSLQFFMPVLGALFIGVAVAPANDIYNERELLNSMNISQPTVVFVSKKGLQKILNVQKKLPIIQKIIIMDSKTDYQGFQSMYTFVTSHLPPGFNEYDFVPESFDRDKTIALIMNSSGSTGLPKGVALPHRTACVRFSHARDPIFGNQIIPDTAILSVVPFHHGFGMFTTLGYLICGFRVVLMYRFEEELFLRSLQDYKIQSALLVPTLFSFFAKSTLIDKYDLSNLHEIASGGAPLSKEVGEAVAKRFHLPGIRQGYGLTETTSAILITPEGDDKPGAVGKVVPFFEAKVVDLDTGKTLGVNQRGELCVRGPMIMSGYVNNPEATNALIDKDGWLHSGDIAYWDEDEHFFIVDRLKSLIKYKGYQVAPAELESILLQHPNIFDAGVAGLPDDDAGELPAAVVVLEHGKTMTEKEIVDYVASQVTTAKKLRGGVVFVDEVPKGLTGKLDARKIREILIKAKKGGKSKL

IC50 [µM] | Structure (SMILES)
25.4 | CC(=O)N1CCNc2cc(-c3cccc(F)c3)ncc2C1 [NCGC00411252-01]
4.42 | Cc1ccc2nc(-c3ccc4nc(-c5ccc(NC(=O)c6cccc(Cl)c6)cc5)sc4c3)sc2c1[S+](=O)([O-])O [NCGC00386846-01]
> 30 | O=C(O)c1ccccc1-c1nc2ccccc2s1 [NCGC00645508-01]
> 30 | CN(C)C1CCN(c2ccc(-c3nc(CCCc4ccccc4)no3)cn2)CC1 [NCGC00437613-01]
11.1 | COc1ccc(C(=O)N[C@@H]2CN(C(=O)Nc3ccc(OC(F)(F)F)cc3)CCC[C@H]2O)cc1 [NCGC00401608-01]
2.48 | O=C(Nc1cccc(-c2ccc(N3CCOCC3)nn2)c1)Nc1cc(F)ccc1F [NCGC00427590-01]
> 30 | Cc1ccc2nc(-c3ccc(NC(=O)COc4ccc(Cl)c(C)c4)cc3)sc2c1 [NCGC00098204-01]
1.76 | Cc1ccc(Cl)cc1NC(=O)c1cc(-c2ccc3c(c2)OCCO3)on1 [NCGC00118917-01]
> 30 | Cc1ccc(C(=O)Nc2ccc3oc(-c4ccccc4C)nc3c2)cc1 [NCGC00118998-01]
1.97 | CC(C)COc1ccc(C(=O)Nc2onc3c2CCCC3)cc1 [NCGC00115916-01]
11.1 | Cc1ccc2nc(-c3ccc(NC(=O)c4ccccc4S(C)(=O)=O)cc3)sc2c1 [NCGC00141658-01]
> 30 | Oc1cc(-c2nc3ccccc3s2)cc2c1OCCN(Cc1cccn1-c1nccs1)C2 [NCGC00238878-01]
1.57 | Cc1ccc(NC(=O)Nc2ccc(C)n(CC(=O)NC(C)c3cccnc3)c2=O)cc1 (centres unmarked) [NCGC00430804-01]
> 30 | Nc1ncnc2c1ncn2[C@@H]1O[C@H](CO)[C@@H](O)[C@@H]1O [NCGC00178869-10]
> 30 | COc1cccc(-n2cc(CN(C)c3ncncn3)cn2)c1 [NCGC00424283-01]
9.89 | OCc1ccnc(-c2ccc(-c3ccn[nH]3)cc2)c1 [NCGC00444969-01]
16.1 | CN1CCOc2nc(-c3ccc(Oc4ccccc4)cc3)ncc2C1=O [NCGC00413560-01]
9.89 | COc1cccc(C(=O)NCCn2ccn3nc(-c4ccc(C)cc4C)cc3c2=O)c1OC [NCGC00456963-01]
> 30 | COc1cccc(OCc2nc3ccccc3n2Cc2ccccc2)c1 [NCGC00116123-01]
3.51 | COc1ccc(Nc2nc(-c3ccccc3F)no2)cc1OC [NCGC00422302-01]
3.21 | COc1ccc(-c2ncc3c(n2)OCCN(c2ccccc2)C3=O)cc1F [NCGC00413523-01]

IC50 [µM] | Structure (SMILES)
> 30 | C=CCCC(=O)N1CCOc2c(O)cc(-c3nc4ccccc4s3)cc2C1 [NCGC00429409-01]
3.51 | COc1ccc(C(=O)NCCn2ccn3nc(-c4ccc(C)cc4C)cc3c2=O)cc1F [NCGC00456968-01]
14 | Cc1nnc(SCc2ccccc2)c2cc3sccc3n12 [NCGC00122277-01]
10.1 | O=C(Nc1ccccc1)c1nc2c(o1)CCN(Cc1cccc(Cl)c1)CC2 [NCGC00413390-01]
12.4 | CC(=O)NCCC1CCN(C(=O)Nc2ccc(C)cc2)CC1 [NCGC00424871-01]
2.79 | Cc1ccc(CNC(=O)Nc2cccc(-c3ccc(N4CCOCC4)nn3)c2)cc1 [NCGC00427596-01]
15.7 | O=C1CCC2(C(=O)NCCc3ccccc3)CCCC=C2N1c1ccccc1 (centres unmarked) [NCGC00472135-01]
> 30 | Cc1ccc(-c2cccc(COc3cnc4c(ccn4CC(=O)O)c3)c2)c(C)c1 [NCGC00418282-01]
> 30 | COc1ccc(OCc2cc(C(=O)N3C[C@H]4CC[C@H]3C4)n[nH]2)c(Cl)c1 [NCGC00428264-01]
11.1 | Cc1ccc(-c2nnc(SCc3ccccc3)o2)cc1 [NCGC00141131-01]
3.51 | CCCC(=O)Nc1cnc(-c2ccc(C)cc2)nc1 [NCGC00432897-01]
0.0624 | O=C(O)c1cccc(-c2noc(-c3ccccc3C(F)(F)F)n2)c1 [NCGC00168768-02]
> 30 | CCn1cc(-c2ccc(Cl)cc2)cc1C(=O)O [NCGC00432653-01]
16.1 | C[C@@H]1C(=O)O[C@H]2[C@H]1CC[C@@]1(C)Cc3sc(NCCc4ccccn4)nc3[C@@H](C)[C@H]21 [NCGC00391315-01]
3.13 | N#Cc1c(-n2ncnc2-c2cccc(Br)c2)sc2c1CCCCC2 [NCGC00099370-01]
8.05 | COc1ccc(CN2CCOc3nc(-c4cc5ccccc5o4)ncc3C2=O)cc1 [NCGC00413542-01]
> 30 | Cc1cc(C)cc(OCC(=O)Nc2ccc(-c3nc4ccccc4s3)cc2)c1 [NCGC00119151-01]
9.89 | COc1ccc(-c2cc3c(=O)n(CCNC(=O)Cc4cccs4)ccn3n2)cc1 [NCGC00456924-01]
2.79 | CN1CCN(c2ccc(-c3cc4c(ccn4C)c(C(=O)NCCc4ccccn4)n3)cc2)CC1 [NCGC00411712-01]
> 30 | CCCCNc1nc(N)c2[nH]c(=O)n(Cc3ccc(OCCN(C)C)nc3)c2n1 [NCGC00387452-01]
1.24 | Brc1ccc(-c2nc(-c3ccccn3)no2)o1 [NCGC00079657-01]

IC50 [µM] | Structure (SMILES)
1.97 | COc1ccccc1-c1nc(-c2ccc(C(=O)O)cc2)no1 [NCGC00168102-02]
12.4 | CN(CCO)c1ccc(-c2nc(CCCc3ccccc3)no2)cn1 [NCGC00438483-01]
2.79 | COc1cccc(-c2noc(-c3ccc(N4CCCC(CO)C4)nc3)n2)c1OC (centres unmarked) [NCGC00425266-01]
> 30 | COc1ccc(C(=O)Nc2cc([S+](=O)([O-])c3ccc(Cl)cc3)c(O)c(C)c2C)cc1 [NCGC00102574-01]
11.1 | CCc1nnc(CC2CCN(C(=O)Nc3ccc4c(c3)OCCO4)CC2)[nH]1 [NCGC00458299-01]
6.24 | COc1cccc(Nc2nc(-c3ccccc3)no2)c1 [NCGC00422289-01]
12.4 | COc1ccc(OCC(=O)Nc2cc(-c3nc4ccccc4s3)ccc2C)cc1 [NCGC00098594-01]
> 30 | Cc1cc(C)n(CCC(=O)N2CCC(Cc3noc(C4CC4)n3)C2)n1 (centres unmarked) [NCGC00443208-01]
3.94 | COc1cccc(-c2noc(Nc3ccc(OC)c(OC)c3)n2)c1 [NCGC00422366-01]
7 | CC(C)(C)n1cc(-c2cc(C(=O)N3C[C@H]4CC[C@H]3C4)c3ccccc3n2)cn1 [NCGC00432050-01]
11.1 | COc1cc(C(=O)NC2CCCN(c3cc(-c4ccc(F)cc4)n[nH]3)C2)cc(OC)c1OC (centres unmarked) [NCGC00437480-01]
9.89 | Cc1nccn1CCN(C)c1ccc(-c2nc(COc3ccccc3)no2)cn1 [NCGC00428976-01]
12.4 | OCC1CCN(c2ncnc3c2cnn3-c2ccccc2)CC1 [NCGC00608116-01]
3.94 | CCOc1ccc(-c2cc3c(=O)n(CCNC(=O)c4cccc(N(C)C)c4)ccn3n2)cc1 [NCGC00456949-01]
1.76 | c1coc(-c2nc3nccc(-c4ccc5c(c4)OCCCO5)n3n2)c1 [NCGC00424571-01]
11.1 | CN1C[C@@H](N[S+](=O)([O-])c2ccc(C#N)cc2)C[C@H]1c1nc(-c2ccc(Cl)cc2)no1 [NCGC00400957-01]
11.1 | Nc1ccc(C(=O)N2CCCn3nc(C(=O)Nc4ccccc4)cc3C2)cn1 [NCGC00432306-01]
4.95 | Cc1ccc(-n2ncc3c(N4CCC(C)CC4)ncnc32)cc1C [NCGC00139121-01]
11.1 | Cc1cn2nc(C(=O)NCCc3ccccc3)cc2c(=O)[nH]1 [NCGC00453944-01]

Structure (SMILES) | IC50 [µM]
O=C(Nc1ccc2c(c1)OCCO2)c1cccn(Cc2ccccc2)c1=O [NCGC00137349-01] | 11.1
